Usually inhibition stands for how much of the control response was suppressed.

These results are taken from patent US8703796B2, “3H-imidazo [4, 5-B] pyridine-6-carboxamides as anti-inflammatory agents” (Boehringer Ingelheim International GmbH, priority 2008, dated 2014).

The assay addresses T1, recombinant human mPGES-1 (Homo sapiens, UniProt O14684).
T1 construct: made in house; host or cells: Rosetta E. coli (microsomal/membrane fraction)
T1 sequence (O14684 1-152): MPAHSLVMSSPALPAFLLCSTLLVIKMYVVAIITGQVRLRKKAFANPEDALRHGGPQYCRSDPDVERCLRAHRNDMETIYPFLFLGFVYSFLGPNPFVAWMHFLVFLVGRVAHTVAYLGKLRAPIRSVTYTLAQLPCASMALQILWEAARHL
Nature of the assay: mPGES-1 inhibition, HTRF detection of PGE2. It is filed as biochemical. An outline of the steps: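 Microsomes from E. coli expressing recombinant human mPGES-1 in 0.1 M KPi pH 7.4 with 2.5 mM GSH were preincubated with inhibitor 25 min at room temperature. PGH2 was then added, and the reaction was stopped after 1 min with acidified FeCl2. PGE2 was quantified by HTRF (665/620 nm ratio) against a synthetic PGE2 standard curve.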
A general note: TR-FRET usually uses a lanthanide donor and a delayed reading to cut background.
Regarding `O=C(NCc1ccccc1C(F)(F)F)c1cc2nc(Nc3c(Cl)cc(F)cc3Cl)[nH]c2nc1OCC(F)(F)F` [Example 828, 2-(2,6-Dichloro-4-fluoro-phenylamino)-5-(2,2,2-trifluoro-ethoxy)-N-(2-trifluoromethyl-benzyl)-3H-imidazo[4,5-b]pyridine-6-carboxamide], the inhibition at 10 µM is 98%.

For `O=C(NCC(F)(F)C(F)(F)C(F)(F)C(F)(F)F)c1cc2nc(Nc3c(Cl)cc(F)cc3Cl)[nH]c2nc1OCC(F)(F)F` [Example 829, 2-(2,6-Dichloro-4-fluoro-phenylamino)-5-(2,2,2-trifluoro-ethoxy)-N-(2,2,3,3,4,4,5,5,5-nonafluoropentyl)-3H-imidazo[4,5-b]pyridine-6-carboxamide], the inhibition at 10 µM amounted to 100%.

With `O=C(NCc1ncccc1C(F)(F)F)c1cc2nc(Nc3c(Cl)cc(F)cc3Cl)[nH]c2nc1OCC(F)(F)F` [Example 830, 2-(2,6-Dichloro-4-fluoro-phenylamino)-5-(2,2,2-trifluoro-ethoxy)-N-((3-trifluoromethyl-pyridin-2-yl)-methyl)-3H-imidazo[4,5-b]pyridine-6-carboxamide], the inhibition at 10 µM was 98%.

As for `Cn1c(Nc2c(Cl)cncc2Cl)nc2cc(C(=O)Nc3cc(C(F)(F)F)ccn3)c(OCCF)nc21` [Example 831, 2-(3,5-Dichloro-pyridin-4-ylamino)-5-(2-fluoro-ethoxy)-N-(4-trifluoromethyl-pyridin-2-yl)-3-methyl-3H-imidazo[4,5-b]pyridine-6-carboxamide], the inhibition at 10 µM stood at 100%.

As for `Cn1c(Nc2c(Cl)cncc2Cl)nc2cc(C(=O)Nc3ccc(Br)cc3)c(OCCF)nc21` [Example 832, 2-(3,5-Dichloro-pyridin-4-ylamino)-5-(2-fluoro-ethoxy)-N-(4-bromo-phenyl)-3-methyl-3H-imidazo[4,5-b]pyridine-6-carboxamide], the inhibition at 10 µM was found to be 100%.

With `Cn1c(Nc2c(Cl)cncc2Cl)nc2cc(C(=O)N[C@H]3CC[C@H](C(F)(F)F)CC3)c(OCCF)nc21` [Example 833, 2-(3,5-Dichloro-pyridin-4-ylamino)-5-(2-fluoro-ethoxy)-N-(trans-4-trifluoromethyl-cyclohexyl)-3-methyl-3H-imidazo[4,5-b]pyridine-6-carboxamide], the inhibition at 10 µM was 100%.

For the molecule `Cn1c(Nc2c(Cl)cncc2Cl)nc2cc(C(=O)NCC(F)(F)C(F)(F)C(F)(F)C(F)(F)F)c(OCCF)nc21` [Example 834, 2-(3,5-Dichloro-pyridin-4-ylamino)-5-(2-fluoro-ethoxy)-N-(2,2,3,3,4,4,5,5,5-nonafluoropentyl)-3-methyl-3H-imidazo[4,5-b]pyridine-6-carboxamide], the inhibition at 10 µM stood at 99%.

Regarding `Cn1c(Nc2c(Cl)cncc2Cl)nc2cc(C(=O)NCc3ncccc3C(F)(F)F)c(OCCF)nc21` [Example 835, 2-(3,5-Dichloro-pyridin-4-ylamino)-5-(2-fluoro-ethoxy)-N-((3-trifluoromethyl-pyridin-2-yl)-methyl)-3-methyl-3H-imidazo[4,5-b]pyridine-6-carboxamide], the inhibition at 10 µM was determined as 95%.

As to `Cn1c(Nc2c(Cl)cncc2Cl)nc2cc(C(=O)Nc3cc(C(F)(F)F)ccn3)c(OCC(F)F)nc21` [Example 836, 2-(3,5-Dichloro-pyridin-4-ylamino)-5-(2,2-difluoro-ethoxy)-N-(4-trifluoromethyl-pyridin-2-yl)-3-methyl-3H-imidazo[4,5-b]pyridine-6-carboxamide], the inhibition at 10 µM stood at 100%.

With `Cn1c(Nc2c(Cl)cncc2Cl)nc2cc(C(=O)Nc3ccc(Br)cc3)c(OCC(F)F)nc21` [Example 837, 2-(3,5-Dichloro-pyridin-4-ylamino)-5-(2,2-difluoro-ethoxy)-N-(4-bromo-phenyl)-3-methyl-3H-imidazo[4,5-b]pyridine-6-carboxamide], the inhibition at 10 µM came to 96%.

For the molecule `Cn1c(Nc2c(Cl)cncc2Cl)nc2cc(C(=O)N[C@H]3CC[C@H](C(F)(F)F)CC3)c(OCC(F)F)nc21` [Example 838, 2-(3,5-Dichloro-pyridin-4-ylamino)-5-(2,2-difluoro-ethoxy)-N-(trans-4-trifluoromethyl-cyclohexyl)-3-methyl-3H-imidazo[4,5-b]pyridine-6-carboxamide], the inhibition at 10 µM amounted to 94%.

For the molecule `Cn1c(Nc2c(Cl)cncc2Cl)nc2cc(C(=O)NCc3ccccc3C(F)(F)F)c(OCC(F)F)nc21` [Example 839, 2-(3,5-Dichloro-pyridin-4-ylamino)-5-(2,2-difluoro-ethoxy)-N-(2-trifluoromethyl-benzyl)-3-methyl-3H-imidazo[4,5-b]pyridine-6-carboxamide], the inhibition at 10 µM was 98%.

In the case of `Cn1c(Nc2c(Cl)cncc2Cl)nc2cc(C(=O)NCC(F)(F)C(F)(F)C(F)(F)C(F)(F)F)c(OCC(F)F)nc21` [Example 840, 2-(3,5-Dichloro-pyridin-4-ylamino)-5-(2,2-difluoro-ethoxy)-N-(2,2,3,3,4,4,5,5,5-nonafluoropentyl)-3-methyl-3H-imidazo[4,5-b]pyridine-6-carboxamide], the inhibition at 10 µM is 99%.

`Cn1c(Nc2c(Cl)cncc2Cl)nc2cc(C(=O)NCc3ncccc3C(F)(F)F)c(OCC(F)F)nc21` [Example 841, 2-(3,5-Dichloro-pyridin-4-ylamino)-5-(2,2-difluoro-ethoxy)-N-((3-trifluoromethyl-pyridin-2-yl)-methyl)-3-methyl-3H-imidazo[4,5-b]pyridine-6-carboxamide]: the inhibition at 10 µM came out at 99%.

As for `CCOc1nc2[nH]c(Nc3c(Cl)cncc3Cl)nc2cc1C(=O)N[C@H]1CC[C@H](C(F)(F)F)CC1` [Example 842, 2-(3,5-Dichloro-pyridin-4-ylamino)-5-ethoxy-N-(trans-4-trifluoromethyl-cyclohexyl)-3H-imidazo[4,5-b]pyridine-6-carboxamide], the inhibition at 10 µM worked out at 92%.

On to `CCOc1nc2[nH]c(Nc3c(Cl)cncc3Cl)nc2cc1C(=O)NCc1ncccc1C(F)(F)F` [Example 843, 2-(3,5-Dichloro-pyridin-4-ylamino)-5-ethoxy-N-((3-trifluoromethyl-pyridin-2-yl)-methyl)-3H-imidazo[4,5-b]pyridine-6-carboxamide], for which the inhibition at 10 µM is 99%.

Consider `CCOc1nc2[nH]c(Nc3c(Cl)cncc3Cl)nc2cc1C(=O)NCC(F)(F)C(F)(F)C(F)(F)C(F)(F)F` [Example 844, 2-(3,5-Dichloro-pyridin-4-ylamino)-5-ethoxy-N-(2,2,3,3,4,4,5,5,5-nonafluoro-pentyl)-3H-imidazo[4,5-b]pyridine-6-carboxamide], for which the inhibition at 10 µM came to 100%.

Regarding `CCOc1nc2[nH]c(Nc3c(Cl)cncc3Cl)nc2cc1C(=O)Nc1cc(C(F)(F)F)ccn1` [Example 845, 2-(3,5-Dichloro-pyridin-4-ylamino)-5-ethoxy-N-(4-trifluoromethyl-pyridin-2-yl)-3H-imidazo[4,5-b]pyridine-6-carboxamide], the inhibition at 10 µM amounted to 99%.

Consider `Cn1c(Nc2c(Cl)cncc2Cl)nc2cc(C(=O)N[C@H]3CC[C@H](C(F)(F)F)CC3)c(OC3CCOC3)nc21` (stereo partly drawn) [Example 846, 2-(3,5-Dichloro-pyridin-4-ylamino)-5-(tetrahydrofuran-3-yl-oxy)-N-(trans-4-trifluoromethyl-cyclohexyl)-3-methyl-3H-imidazo[4,5-b]pyridine-6-carboxamide], for which the inhibition at 10 µM amounted to 100%.
